Laboratory results as given in article PMC5177912, “Glycosides from edible sea cucumbers stimulate macrophages via purinergic receptors” (Scientific Reports, 2016).
Counter-ions that a name gives are not always drawn.

Target: T1, P2X4 receptor (recombinant mouse P2X4 purinoceptor) (Mus musculus, UniProt Q9JJX6)
T1 construct: gene P2rx4; the complete extracellular domain, N-terminal His-6 tag, expressed in E. coli
T1 sequence (Q9JJX6 55-338): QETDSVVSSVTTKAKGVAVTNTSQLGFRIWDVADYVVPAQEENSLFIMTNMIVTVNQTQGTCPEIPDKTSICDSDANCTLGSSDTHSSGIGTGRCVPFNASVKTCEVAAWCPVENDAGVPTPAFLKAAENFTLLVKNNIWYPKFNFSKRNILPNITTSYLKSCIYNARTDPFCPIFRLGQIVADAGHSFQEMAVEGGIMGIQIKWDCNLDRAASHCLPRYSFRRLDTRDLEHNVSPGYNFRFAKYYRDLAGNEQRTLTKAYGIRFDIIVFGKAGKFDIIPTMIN
Assay: SPR (Biacore T200, P2X4 immobilized on CM5 chip)
Type: binding

SMILES: C=C(C)CCC[C@]1(C)OC(=O)[C@]23CCC4C(=CC[C@H]5C(C)(C)[C@@H](O[C@@H]6OC[C@@H](OS(=O)(=O)O)[C@H](O)[C@H]6O[C@@H]6O[C@H](C)[C@@H](O[C@@H]7O[C@H](CO)[C@@H](O)[C@H](O[C@@H]8O[C@H](CO)[C@@H](O)[C@H](OC)[C@H]8O)[C@H]7O)[C@H](O)[C@H]6O[C@@H]6OC[C@@H](O)[C@H](O)[C@H]6O)CC[C@]45C)[C@]2(C)CC(=O)[C@@H]31 (stereo partly drawn) [CA2-2, 3-O-{3-O-methyl-β-D-glucopyranosyl-(1→3)-β-D-glucopyranosyl-(1→4)-[β-D-xylopyranosyl-(1→2)]-β-D-quinovopyranosyl-(1→2)−4-O-sodium sulfate-β-D-xylopyranosyl}−16-keto-holosta-7,25-diene]
- Kd: 45.2 µM
